We go through six compounds from US8664379B2, “Fused heterocyclic compounds as ion channel modulators” (Gilead Sciences, Inc., priority 2008, dated 2014).

“And” between values parts separate entries of the source, which are not always exact repeats. Identical values can stand only once.

Data set [1] has as its target wild-type human cardiac sodium channel, hNav1.5 (late sodium current) (Homo sapiens, UniProt Q14524). Nature of the data set: Late INa screening assay (PatchXpress whole cell patch clamp). The data set is classed as cell-based. Particulars: HEK293, 10 μM test compound; HEK293 cells expressing hNav1.5; late INa generated with 10 μM Tefluthrin (some experiments 50 nM ATX II); read-out: Late INa % blk (10 μM test cmpd).

The target in another data set is T1, hERG potassium channel (Homo sapiens, UniProt Q12809).
T1 construct: expressed in transfected cells
T1 sequence (Q12809 whole entry): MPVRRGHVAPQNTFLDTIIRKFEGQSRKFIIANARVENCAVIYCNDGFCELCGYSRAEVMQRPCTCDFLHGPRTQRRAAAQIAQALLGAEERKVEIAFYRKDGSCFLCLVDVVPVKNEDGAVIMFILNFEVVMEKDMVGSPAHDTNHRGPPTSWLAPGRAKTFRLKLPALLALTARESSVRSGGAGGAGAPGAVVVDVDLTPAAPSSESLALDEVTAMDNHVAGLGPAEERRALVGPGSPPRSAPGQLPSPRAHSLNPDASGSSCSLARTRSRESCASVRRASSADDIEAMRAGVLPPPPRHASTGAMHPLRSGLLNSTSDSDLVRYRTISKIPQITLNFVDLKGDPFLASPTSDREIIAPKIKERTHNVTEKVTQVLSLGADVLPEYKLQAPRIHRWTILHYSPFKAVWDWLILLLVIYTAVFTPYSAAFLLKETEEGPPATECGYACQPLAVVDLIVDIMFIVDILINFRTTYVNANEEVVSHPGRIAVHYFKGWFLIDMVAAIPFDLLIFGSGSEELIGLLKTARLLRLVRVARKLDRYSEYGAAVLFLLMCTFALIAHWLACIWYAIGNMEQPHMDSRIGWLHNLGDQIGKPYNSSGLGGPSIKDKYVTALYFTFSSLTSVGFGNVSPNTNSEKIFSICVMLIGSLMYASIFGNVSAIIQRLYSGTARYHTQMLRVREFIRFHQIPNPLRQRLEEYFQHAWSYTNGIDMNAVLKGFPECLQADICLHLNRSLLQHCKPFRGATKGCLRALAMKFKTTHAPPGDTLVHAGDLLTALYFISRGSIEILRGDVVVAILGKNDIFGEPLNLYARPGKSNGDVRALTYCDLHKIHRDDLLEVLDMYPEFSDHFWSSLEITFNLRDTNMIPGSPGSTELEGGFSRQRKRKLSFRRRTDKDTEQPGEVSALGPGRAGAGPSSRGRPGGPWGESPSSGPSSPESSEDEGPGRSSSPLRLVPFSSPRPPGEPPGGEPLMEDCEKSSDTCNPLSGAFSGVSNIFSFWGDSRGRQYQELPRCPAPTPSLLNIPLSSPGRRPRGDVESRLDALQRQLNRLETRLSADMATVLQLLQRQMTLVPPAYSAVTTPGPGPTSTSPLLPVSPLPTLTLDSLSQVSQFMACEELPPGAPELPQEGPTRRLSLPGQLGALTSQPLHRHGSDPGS
As to the kind of experiment: hERG screening assay (PatchXpress patch clamp). Particulars: hERG expressed in CHO cells, peak current at -50 mV; for hERG Patch Clamp hERG % blk 1 μm: 1 μM test compound; for hERG Patch Clamp hERG % blk 10 μm: 10 μM test compound. The data set is classed as cell-based. The procedure: Compounds were screened to test their activity in blocking the hERG potassium channel. The hERG channel was heterologously expressed in a CHO (Chinese Hamster Ovary) cell line. Cells were maintained with standard tissue culture procedures and stable channel expression was maintained with 500 μg/ml G418 in the culture medium. Cells were harvested for testing on the PatchXpress automated patch clamp with Accumax (Innovative Cell Technologies, San Diego, Calif.) to isolate single cells.
The following solutions were used for electrophysiological recordings. The external solution contained: 2 mM CaCl2; 2 mM MgCl2; 4 mM KCl; 150 mM NaCl; 10 mM Glucose; 10 mM HEPES (pH 7.4 with 1M NaOH, osmolarity). The internal solution contained: 140 mM KCl, 10 mM MgCl2, 6 mM EGTA, 5 mM HEPES, 5 mM ATP (pH adjusted to 7.25 with KOH).
hERG channels are activated when the voltage is stepped to +20 mV from the −80 mV holding potential. During a 5 second step at +20 mV, the channels activated and then largely inactivated, so the currents were relatively small. Upon returning to −50 mV from +20 mV, hERG currents transiently became much larger as inactivation was rapidly removed and then the channel closed. The first step to −50 mV for 300 ms was used as a baseline for measuring the peak amplitude during the step to −50 mV after channel activation. The peak current at −50 mV was measured both under control conditions and after addition of compound.
All compounds were prepared as 10 mM DMSO stocks in glass vials. Stock solutions were mixed by vigorous vortexing and sonication for about 2 minutes at room temperature. For testing, compounds were diluted in glass vials using an intermediate dilution step in pure DMSO and then further diluted to working concentrations in external solution. Dilutions were prepared no longer than 20 minutes before use.
After achieving the whole-cell configuration, cells were monitored for 90 seconds to assess stability and washed with external solution for 66 seconds. The voltage protocol described above was then applied to the cells every 12 seconds and throughout the whole procedure. Only cells with stable recording parameters and meeting specified health criteria were allowed to enter the compound addition procedure.
External solution containing 0.1% DMSO (vehicle) was applied to the cells first to establish the control peak current amplitude. After allowing the current to stabilize for 3 to 5 minutes, 1 μM and then 10 μM test compounds were applied. Each compound concentration was added 4 times and cells were kept in test solution until the effect of the compound reached steady state or for a maximum of 12 minutes. After addition of test compound, a positive control (1 μM Cisapride) was added—it must block >95% of the current for the experiment to be considered valid. Washout in the external solution compartment was performed until the recovery of the current reached steady state. Data were analyzed using DataXpress, Clampfit (Molecular Devices, Inc., Sunnyvale) and Origin 7 (Originlab Corp.)

wild-type human cardiac sodium channel, hNav1.5 (late sodium current), sequence (Q14524 whole entry): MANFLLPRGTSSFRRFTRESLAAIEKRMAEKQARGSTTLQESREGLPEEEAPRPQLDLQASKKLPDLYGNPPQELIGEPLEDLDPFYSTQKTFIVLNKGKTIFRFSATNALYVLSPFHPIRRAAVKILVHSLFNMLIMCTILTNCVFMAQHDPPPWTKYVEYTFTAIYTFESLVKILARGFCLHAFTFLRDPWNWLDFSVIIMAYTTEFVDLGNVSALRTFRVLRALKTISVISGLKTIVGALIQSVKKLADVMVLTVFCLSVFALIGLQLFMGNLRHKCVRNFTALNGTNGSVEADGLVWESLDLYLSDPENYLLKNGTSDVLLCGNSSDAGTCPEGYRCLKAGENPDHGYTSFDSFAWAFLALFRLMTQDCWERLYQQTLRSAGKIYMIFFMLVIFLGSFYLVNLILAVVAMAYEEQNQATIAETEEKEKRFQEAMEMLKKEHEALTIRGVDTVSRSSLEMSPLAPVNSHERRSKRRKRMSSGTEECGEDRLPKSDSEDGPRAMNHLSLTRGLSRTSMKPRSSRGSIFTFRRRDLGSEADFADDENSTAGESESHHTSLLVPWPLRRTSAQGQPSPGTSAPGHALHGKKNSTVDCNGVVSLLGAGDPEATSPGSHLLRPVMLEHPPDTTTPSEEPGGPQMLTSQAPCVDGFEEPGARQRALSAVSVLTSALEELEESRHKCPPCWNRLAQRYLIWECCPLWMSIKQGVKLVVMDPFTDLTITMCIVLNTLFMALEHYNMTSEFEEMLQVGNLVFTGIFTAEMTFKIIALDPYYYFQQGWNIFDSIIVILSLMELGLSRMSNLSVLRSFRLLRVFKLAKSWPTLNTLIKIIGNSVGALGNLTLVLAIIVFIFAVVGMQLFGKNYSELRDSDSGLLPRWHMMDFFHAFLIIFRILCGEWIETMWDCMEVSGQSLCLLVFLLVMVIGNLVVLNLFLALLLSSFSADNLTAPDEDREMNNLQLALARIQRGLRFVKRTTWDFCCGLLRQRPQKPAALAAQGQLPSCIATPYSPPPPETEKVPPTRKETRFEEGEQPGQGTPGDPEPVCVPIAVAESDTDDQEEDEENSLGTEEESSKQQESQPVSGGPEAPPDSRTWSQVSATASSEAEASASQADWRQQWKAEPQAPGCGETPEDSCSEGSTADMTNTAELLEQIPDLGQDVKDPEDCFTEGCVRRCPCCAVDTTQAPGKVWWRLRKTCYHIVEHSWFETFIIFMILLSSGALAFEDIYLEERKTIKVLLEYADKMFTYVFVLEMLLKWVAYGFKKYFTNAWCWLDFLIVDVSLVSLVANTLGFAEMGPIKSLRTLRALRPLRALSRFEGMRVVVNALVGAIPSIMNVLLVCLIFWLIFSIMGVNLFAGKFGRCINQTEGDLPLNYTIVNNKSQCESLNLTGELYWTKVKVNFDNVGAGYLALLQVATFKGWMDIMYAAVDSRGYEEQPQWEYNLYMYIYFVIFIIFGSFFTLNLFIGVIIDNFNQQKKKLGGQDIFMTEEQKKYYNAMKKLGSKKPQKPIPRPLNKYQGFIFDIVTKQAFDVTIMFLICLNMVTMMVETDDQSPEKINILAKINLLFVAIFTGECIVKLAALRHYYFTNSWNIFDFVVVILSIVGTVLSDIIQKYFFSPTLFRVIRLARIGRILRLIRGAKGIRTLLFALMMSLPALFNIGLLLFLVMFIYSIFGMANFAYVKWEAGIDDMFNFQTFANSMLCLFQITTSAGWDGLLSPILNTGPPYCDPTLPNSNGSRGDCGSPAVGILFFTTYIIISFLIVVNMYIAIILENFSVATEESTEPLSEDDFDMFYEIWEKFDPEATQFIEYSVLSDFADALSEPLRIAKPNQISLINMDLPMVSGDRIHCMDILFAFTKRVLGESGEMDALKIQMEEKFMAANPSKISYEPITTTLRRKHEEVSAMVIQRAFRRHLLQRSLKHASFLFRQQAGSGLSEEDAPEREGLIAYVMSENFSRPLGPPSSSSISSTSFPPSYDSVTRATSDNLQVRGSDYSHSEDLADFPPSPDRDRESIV

Turning to `O=C1CCc2cc(-c3ccc(F)c(F)c3)ccc2N1CCO` [Compound 15, 6-(3,4-difluorophenyl)-1-(2-hydroxyethyl)-3,4-dihydroquinolin-2(1H)-one], the inhibition at 10 µM in data set [1] is 36%. Further, on hERG potassium channel, the “hERG Patch Clamp hERG % blk 1 μm” value is given as 13% and the “hERG Patch Clamp hERG % blk 10 μm” value is 59%.
The matching figures for `O=C(O)CN1C(=O)CCc2cc(-c3ccc(Cl)c(F)c3)ccc21` [Compound 58, [6-(4-chloro-3-fluorophenyl)-2-oxo-3,4-dihydroquinolin-1(2H)-yl]acetic acid]: 13%, 10% and 10%.
The matching figures for `CCOC(=O)CN1C(=O)CCc2cc(-c3ccc(OC(F)(F)F)cc3)ccc21` [Compound 25, ethyl {2-oxo-6-[4-(trifluoromethoxy)phenyl]-3,4-dihydroquinolin-1(2H)-yl}acetate]: 20%, 26% and 32%.
For `Cc1cc(CN2C(=O)CCc3cc(-c4ccc(OC(F)(F)F)cc4)ccc32)no1` [Compound 39, 1-[(5-methylisoxazol-3-yl)methyl]-6-[4-(trifluoromethoxy)phenyl]-3,4-dihydroquinolin-2(1H)-one], the inhibition at 10 µM in data set [1] is 60%. Besides, on hERG potassium channel, the “hERG Patch Clamp hERG % blk 1 μm” value was found to be 12% and the “hERG Patch Clamp hERG % blk 10 μm” value amounted to 96%.
For the compound `CC(O)CN1C(=O)CCc2cc(-c3ccc(OC(F)(F)F)cc3)ccc21` (stereo not drawn) [Compound 89, 1-(2-hydroxypropyl)-6-[4-(trifluoromethoxy)phenyl]-3,4-dihydroquinolin-2(1H)-one], the inhibition at 10 µM in data set [1] turned out to be 42%. Also, at hERG potassium channel, the “hERG Patch Clamp hERG % blk 1 μm” value was 24% and 16%; the “hERG Patch Clamp hERG % blk 10 μm” value was 67% and 72%.
As to `O=C(O)CN1C(=O)CCc2cc(-c3ccc(Cl)c(Cl)c3)ccc21` [Compound 69, [6-(3,4-dichlorophenyl)-2-oxo-3,4-dihydroquinolin-1(2H)-yl]acetic acid], the inhibition at 10 µM in data set [1] amounted to 16%. Also, on hERG potassium channel, the “hERG Patch Clamp hERG % blk 1 μm” value came to 10% and the “hERG Patch Clamp hERG % blk 10 μm” value was 10%.
